Assays:
[1] = system: Watergrass (Echinochloa crusgalli); experiment: Post-emergent herbicidal test; assay type: in vivo; settings: 0-to-100 scale
[2] = system: Lambsquarter (Chenopodium album); experiment: Post-emergent herbicidal test; assay type: in vivo; settings: 0-to-100 scale
[3] = system: Lambsquarter (Chenopodium album); experiment: Pre-Emergent herbicidal test; assay type: in vivo; settings: 33 micrograms/cm^2, 3 weeks, 0-to-100 scale, 100 = complete kill
Protocol: (§1) Pre-emergent herbicidal tests on representative compounds of the invention were made using the following method:
(§2) An acetone solution of the test compound was prepared by mixing 750 mg of the compound, 220 mg of a nonionic surfactant and 25 ml of acetone. This solution was added to approximately 125 ml of water containing 156 mg of surfactant.
(§3) Seeds of the test vegetation were planted in a pot of soil and the test solution was sprayed uniformly onto the soil surface at a dose of 33 micrograms/cm^2. The pot was watered and placed in a greenhouse. […] At the end of this period, the herbicidal effectiveness of the compound was rated based on the physiological observations. A 0-to-100 scale was used, 0 representing no phytotoxicity, 100 representing complete kill.

[4] = system: Watergrass (Echinochloa crusgalli); experiment: Pre-Emergent herbicidal test; assay type: in vivo; settings: 33 micrograms/cm^2, 3 weeks, 0-to-100 scale, 100 = complete kill
Protocol: as §1, §2, §3

[5] = system: Wild Oats (Avena fatua); experiment: Pre-Emergent herbicidal test; assay type: in vivo; settings: 33 micrograms/cm^2, 3 weeks, 0-to-100 scale, 100 = complete kill
Protocol: as §1, §2, §3

[6] = system: Mustard (Brassica arvensis); experiment: Pre-Emergent herbicidal test; assay type: in vivo; settings: 33 micrograms/cm^2, 3 weeks, 0-to-100 scale, 100 = complete kill
Protocol: as §1, §2, §3

[7] = system: Crabgrass (Digitaria sanguinalis); experiment: Pre-Emergent herbicidal test; assay type: in vivo; settings: 33 micrograms/cm^2, 3 weeks, 0-to-100 scale, 100 = complete kill
Protocol: as §1, §2, §3

[8] = system: Wild Oats (Avena fatua); experiment: Post-emergent herbicidal test; assay type: in vivo; settings: 0-to-100 scale
[9] = system: Septoria apii; settings: in vivo
[10] = system: Crabgrass (Digitaria sanguinalis); experiment: Post-emergent herbicidal test; assay type: in vivo; settings: 0-to-100 scale
[11] = system: Erysiphe polygoni; experiment: Powdery Mildew (bean seedlings); assay type: in vivo; settings: 240 h, 250 ppm spray on bean seedlings, about 10 days, relative to untreated check plants
Description: The powdery mildew test was made using bean seedlings (var. Bountiful) with well-developed primary leaves. The pathogen was Erysiphe polygoni. The bean seedlings were sprayed with a 250 ppm solution of the test compound in an acetone-water mixture containing a nonionic emulsifier. The treated plants were inoculated one day after spray application of the test compound with the pathogen. […] The rate of infection on the leaves was made after about 10 days. The percent disease control provided by a given test compound was based on the disease reduction relative to untreated check plants.

[12] = system: Mustard (Brassica arvensis); experiment: Post-emergent herbicidal test; assay type: in vivo; settings: 0-to-100 scale

Cc1cc(Cl)ccc1OCC1=NC2=S(O1)SN=C2Cl (stereo not drawn) [Compound 19]
Herbicidal Effectiveness - Post, W [1]: 40
Herbicidal Effectiveness - Post, L [2]: 95
Herbicidal Effectiveness - Pre, L [3]: 100
Herbicidal Effectiveness - Pre, W [4]: 75
Herbicidal Effectiveness - Pre, O [5]: 35
Herbicidal Effectiveness - Pre, M [6]: 100
Herbicidal Effectiveness - Pre, C [7]: 85
Herbicidal Effectiveness - Post, O [8]: 10
Celery Late Blight % Control [9]: 92%
Herbicidal Effectiveness - Post, C [10]: 0
pest or weed control at 250 ppm [11]: 57%
Herbicidal Effectiveness - Post, M [12]: 100

From patent US4179441A, “Fungidal and herbicidal 2-substituted-3-oxa-3aλ^4, 4-dithia-6-halo-1,5-diazapentalene” (Chevron Research Company, priority 1977, dated 1979)
